Laboratory results published in PMC4523242 (Antiviral Research, 2014).
Like-named read-outs stand apart in the source and are kept apart here.

Columns and labels:
DENV2 replicon = experiment: DENV2 Rluc reporter replicon inhibition assay in BHK-21/DENV2 cells; format: cell-based, Dengue virus type 2; details: for % replicon inhibition (Means ± SEM) DENV2: 50 μM, 24 h, BHK-21/DENV2 replicon cells; for EC50: Dengue virus
Cytotoxicity = details: African green monkey, naïve Vero cells
WNV replicon = experiment: WNV Rluc reporter replicon inhibition assay in Vero/WNV cells; format: cell-based, West Nile virus; details: 24 h; for % replicon inhibition (Means ± SEM) WNV: 50 μM; for EC50: read-out: WNV replicon EC50
BHK-21 cells = experiment: Cytotoxicity; details: read-out: DENV2 replicon CC50, 24 h
Vero cells = experiment: Cytotoxicity; details: read-out: WNV replicon CC50; Vero cells, 24 h
DENV2 [1] = experiment: qRT-PCR of intracellular and extracellular DENV2 RNA in infected BHK-21 cells; format: cell-based, Dengue virus type 2; details: 5 μM, MOI of 1, 72 h
DENV2 NS5 RdRP = DENV2 NS5 RdRP (Dengue virus type 2, UniProt P14340); experiment: RNA-dependent RNA polymerase assay; format: biochemical
[2] = biological target: DENV2 5'-RNA methyltransferase (NS5FL) (Dengue virus type 2, UniProt P14340); format: biochemical
DENV2 [3] = experiment: DENV2 infectivity in BHK-21 cells, plaque assay of supernatants; format: cell-based, Dengue virus type 2
DENV2 NS2B-NS3 protease = biological target: T1, DENV2 NS2B-NS3 protease (Dengue virus type 2, UniProt P14340); format: biochemical
T1 sequence (P14340 1476-1653 limits assumed): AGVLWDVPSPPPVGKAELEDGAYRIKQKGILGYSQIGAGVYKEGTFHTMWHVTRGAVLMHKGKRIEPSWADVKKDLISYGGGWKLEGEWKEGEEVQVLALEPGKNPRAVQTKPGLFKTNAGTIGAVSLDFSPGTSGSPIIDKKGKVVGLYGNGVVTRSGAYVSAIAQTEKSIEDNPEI
T1 sequence (P14340 1398-1437 limits assumed): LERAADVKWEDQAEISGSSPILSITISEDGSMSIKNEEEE

DENV2 [4] = experiment: Direct plaque assay; format: cell-based, Dengue virus type 2; details: MOI of 0.01
[5] = biological target: Renilla luciferase (Rluc) (Renilla reniformis, UniProt P27652); format: biochemical
[6] = Viability of replicon expressing cells; details: hamster, BHK-21 cells expressing DENV2 replicon
[7] = DENV2, BHK-21, 24 h, read-out: DENV2 replicon EC50
[8] = Vero/WNV replicon cells, Rluc, initial screening

Sequence of Renilla luciferase (Rluc) (P27652 whole entry, looked up): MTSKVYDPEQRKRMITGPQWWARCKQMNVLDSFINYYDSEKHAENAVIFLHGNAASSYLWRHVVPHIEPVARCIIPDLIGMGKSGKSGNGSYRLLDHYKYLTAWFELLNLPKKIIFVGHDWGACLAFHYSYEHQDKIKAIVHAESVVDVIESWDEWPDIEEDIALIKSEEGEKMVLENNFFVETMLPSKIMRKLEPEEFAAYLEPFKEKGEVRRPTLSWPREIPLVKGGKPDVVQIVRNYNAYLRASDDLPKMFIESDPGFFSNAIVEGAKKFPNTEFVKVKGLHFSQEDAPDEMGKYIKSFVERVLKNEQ

| Molecule | % replicon inhibition (Means ± SEM) DENV2 (DENV2 replicon) [%] | EC50 (DENV2 replicon; [7]) [µM] | CC50 at 24 h (Cytotoxicity) [µM] | % replicon inhibition (Means ± SEM) WNV (WNV replicon; Vero/WNV replicon cells) [%] | EC50 (WNV replicon; West Nile virus, Vero) [µM] | CC50 (BHK-21 cells) [µM] | CC50 (Vero cells) [µM] | EC50 (WNV replicon; [8]) [µM] | other results |
| --- | --- | --- | --- | --- | --- | --- | --- | --- | --- |
| CC(CCCN(CCCl)CCCl)Nc1ccnc2cc(Cl)ccc12 (stereo not drawn) [Compound 5, Chloroquine mustard] | > 99 | 2.9 ± 0.78 | 3.64 ± 0.93 | > 99 | 2.95 ± 0.77 | – | – | – | – |
| Cl.ClCCN(CCCl)c1ccc(CCNc2ccnc3cc(Cl)ccc23)cc1 [Compound 4, Chloroquine ethyl phenyl mustard] | > 99 | – | – | > 99 | – | 74.1 ± 21.5 | 5.02 ± 1.23 | 1.55 ± 0.4 | – |
| CCN(CC)Cc1cc(Nc2ccnc3cc(Cl)ccc23)ccc1O [Compound 1, 4-[(7-chloroquinolin-4-yl)amino]-2(diethylaminomethyl)phenol] | – | 10.8 ± 1.43 | 24.4 ± 2.49 | – | 14.6 ± 2.21 | – | – | – | intracellular and extracellular DENV2 RNA levels (qRT-PCR) (DENV2 [1]): effectively inhibited DENV2 replication; Inhibition of RdRP activity, positive-strand RNA synthesis (DENV2 NS5 RdRP; 50 μM, 60 min): 10.58 ± 0.94%; inhibition at 50 µM (DENV2 NS5 RdRP; read-out: Inhibition of RdRP activity, negative-strand synthesis): -17.1 ± 4.37%; inhibition of formation of type I cap by NS5FL [2]: did not inhibit; plaque reduction, time of addition assay (DENV2 [3]; 5 μM added as late as 15 h post-infection, MOI of 1, supernatants at 72 h): ≥ 90%; effect when added late, time of addition assay (DENV2 [3]; 5 μM added at 21 h post-infection and later, MOI of 1): lost its inhibitory effect; reduction of plaque titer from DMSO control, order of addition assay (DENV2 [3]; 5 μM added post-infection, MOI of 1, 48 and 72 h post-infection): ≥ 90%; plaque formation reduced (time course) (DENV2 [3]; 5 μM, MOI of 0.01, up to 96 h): ≥ 90%; stability of AQ in infected cell culture (DENV2 [3]; concluded from time course of inhibition, 37 °C, post-infection): at least 96 h; effect on DENV2 protease (DENV2 NS2B-NS3 protease): no effect; effect on DENV2 adsorption (DENV2 [4]; 5 μM during adsorption only): does not inhibit DENV2 adsorption; virus titer reduction, direct plaque assay (DENV2 [4]; 10 μM during adsorption only): 69.23 ± 1.57%; virus titer reduction, direct plaque assay (DENV2 [4]; 25 μM during adsorption only): 82.70 ± 2.48%; interference with Rluc enzyme activity [5]: did not interfere; % replicon inhibition (Means ± SEM) DENV2 (DENV2 replicon; listed as AQ): 76.31 ± 1.60%; EC50 (DENV2 replicon; DENV2, BHK-21, 48 h, read-out: EC50 DENV2 replicon replication): 7.41 ± 1.09 µM; inhibition at 50 µM (WNV replicon; West Nile virus, Vero, read-out: % replicon inhibition (Means ± SEM) WNV, 50 μM, 24 h, Vero/WNV replicon cells): 96.3 ± 0.39%; CC50 at 48 h [6]: 52.1 ± 4.25 µM |
| Quinacrine mustard [Compound 9] | > 99 | – | – | > 99 | – | 2.4 ± 0.63 | 0.97 ± 0.11 | 0.36 ± 0.09 | – |
